Measured values taken from patent publication US9216247B2, “Buffered compositions for dialysis” (Advanced Renal Technologies, priority 1998, dated 2015).
Like-named read-outs stand apart in the source and are kept apart here.

Experiments:
[1] = tested on: coagulation behavior of blood; assay: clotting time of patients dialysed with citric acid dialysate; type: in vivo; details: 2.4 mEq/L of citric acid in dialysate; beyond that achieved with heparin

With CC(=O)[O-].[Na+] [sodium acetate] the buffering action (bicarbonate concentrate solutions of 8.1<pH<8.3) was “evident” and the buffering action (bicarbonate concentrate solutions with a pH of <8.0) was “not apparent”.

In the case of O=C(O)CC(O)(CC(=O)O)C(=O)O [citric acid, Citric acid], the “increase in patient's clotting time” value [1] is reported as “no measurable increase”.
